Data as given in ChEMBL document CHEMBL1142482, “Synthesis of novel benzamidine- and guanidine-derived polyazamacrocycles: Selective anti-protozoal activity for human African trypanosomiasis” (Bioorg Med Chem Lett, 2008).

Assays:
[1] = Lipophilicity, log P of the compound; type: physicochemical; conditions: octanol/water
Trypanosoma brucei = experiment: Antitrypanosomal activity against bloodstream Trypanosoma brucei P2 by Alamar blue assay; type: functional, organism-based
[2] = Cytotoxicity against HEK cells; type: cell-based; conditions: Homo sapiens, HEK293
Plasmodium falciparum = experiment: Antiplasmodial activity against Plasmodium falciparum; type: functional, organism-based

| Structure (SMILES) | logP [1] | EC50 (Trypanosoma brucei) [µM] | EC50 [2] [µM] | EC50 (Plasmodium falciparum) [µM] |
| --- | --- | --- | --- | --- |
| NCc1ccc(C2CNCCNCCNCCN2)cc1 (stereo unspecified) | -1.12 | > 200 | > 200 | > 100 |
| N=C(N)NCc1ccc(C2CNCCNCCNCCN2)cc1 (stereo unspecified) | -1.64 | 41.2 | > 200 | > 100 |
| N#Cc1ccc(C2CNCCNCCNCCN2)cc1 (stereo unspecified) | -0.65 | > 200 | > 200 | > 100 |
| O=C(Nc1ccc([N+](=O)[O-])cc1)OCCN1CCN(CCOC(=O)Nc2ccc([N+](=O)[O-])cc2)CCN(CCOC(=O)Nc2ccc([N+](=O)[O-])cc2)CCN(CCOC(=O)Nc2ccc([N+](=O)[O-])cc2)CC1 |  | 0.5 | 1.3 |  |
| N=C(N)c1ccc(C2CNCCNCCNCCN2)cc1 (stereo unspecified) | -1.44 | 22 | > 200 | > 100 |
| c1ccc2c(c1)ccc1ccc(C3CNCCNCCNCCN3)cc12 (stereo unspecified) |  | 1.3 | 24.9 | < 1.5 |
